Data as given in patent US20220054387A1, “COMPOSITION COMPRISING AT LEAST ONE GLYCOSYLATED FLAVONOID AND ITS USE IN COSMETICS OR DERMATOLOGY” (PURALLY, priority 2020, published 2022).

Experiments:
IL-31 = IL-31 release by keratinocytes exposed to benzo[a]pyrene and blue light (ELISA); format: cell-based, human
Method: The cells used in this study are primary cultures of normal human keratinocytes (NHKs) extracted after skin surgery of a donor.
They were cultured in a complete KSFM environment: Keratinocyte-SFM (17005-31, Gibco) with L-Glutamine, supplemented with a recombinant human epidermal growth factor (EGFhr, 10450-013, Gibco), extract of bovine pituitary gland (BPE, 13028-014, Gibco) and 1% of streptomycin penicillin (15070-063, Gibco) at 37° C. in 5% CO2 atmosphere up until 80% confluence.
The keratinocytes cultured according to Example 1 are exposed either to benzo[a]pyrene (B[a]P) at 20 μμM, or to blue light (450 nm) at 40 J/cm^2 or to the combination of both at the same doses. A myricitrin treatment with amounts ranging from 10 μμM to 50 μμM is applied to cells that have previously received the B[a]P and blue light combination.
After 24 hours' treatment, an assay of the interleukin 31 (IL-31) released by the cells is performed, via an immunoassay kit (ELISA.) The IL-31 assay was performed with the human IL-31 ELISA MAX™ Deluxe Set (445704, Biolegend.)

[1] = test system: normal human keratinocytes; test: Keratinocyte viability assay (XTT); format: cell-based; conditions: myricitrin 0.21 to 50 μμM, 24 hours
Method: The cells used in this study are primary cultures of normal human keratinocytes (NHKs) extracted after skin surgery of a donor. They were cultured in a complete KSFM environment: Keratinocyte-SFM (17005-31, Gibco) with L-Glutamine, supplemented with a recombinant human epidermal growth factor (EGFhr, 10450-013, Gibco), extract of bovine pituitary gland (BPE, 13028-014, Gibco) and 1% of streptomycin penicillin (15070-063, Gibco) at 37° C. in 5% CO2 atmosphere up until 80% confluence. On D0, normal human keratinocytes are incubated in 96-well plates in a culture medium. The cells are left to stabilize for 24 hours at 37° C. in 5% CO2 atmosphere, as described in Example 1. […] The NHK viability was assessed using a Cell Proliferation Kit II (XTT) (11465015001, Roche) in accordance with the manufacturer's instructions. The XTT system, a colorimetric method, is a test used to quantify mitochondrial activity. […] The formazan derivate is measured by spectrophotometry (at 450 nm with 650 nm of reference.) For each condition, optical density data averages (OD, absorbance) are calculated. The viability of the treated cells is expressed as a percentage of untreated control batch: a treatment that reduces the viability of the cells to below the comparative limit of 80% of mitochondrial activity in the untreated control batch, is considered cytotoxic for the cells. […]

Row | SMILES | increase in IL-31 by the keratinocytes (IL-31; benzo[a]pyrene 20 μμM combined with blue light (450 nm) 40 J/cm^2) | toxic effect on keratinocytes (cell viability, XTT) [1] | decrease in the production of IL-31 (IL-31; myricitrin as of 20 μM, cells pre-treated with 20 μM of B[a]P and 40 J/cm^2 of blue light, 24 hours' treatment) [%]
1 | c1ccc2c(c1)cc1ccc3cccc4ccc2c1c34 [benzo[a]pyrene, reference compound] | +111% | – | –
2 | C[C@@H]1O[C@@H](Oc2c(-c3cc(O)c(O)c(O)c3)oc3cc(O)cc(O)c3c2=O)[C@H](O)[C@H](O)[C@H]1O [myricitrin, 5,7-dihydroxy-3-[(2S,3R,4R,5R,6S)-3,4,5-trihydroxy-6-methyloxan-2-yl]oxy-2-(3,4,5-trihydroxyphenyl)chromen-4-one] | – | no toxic effect | −100
